The test system of test [1] is high spontaneous activity induced by MK-801. In words: Inhibition of high spontaneous activity induced by MK-801 in mice. The format is in vivo. Conditions: male C57Bl/6J mice, compound p.o. 30 min before MK-801 0.3 mg/kg i.p. The method, then:
3.1 Experimental Materials:
Compounds to be tested: compounds in the examples of the present application, self-made.
(§1) Experimental animals: 18-22 g male C57Bl/6J mice, purchased from Shanghai Slack Experimental Animal Co., Ltd.
3.2.1 Grouping of animals: before the start of the experiment, animals were randomly grouped according to body weight. 3.2.2 Animal adaptation: before the experiment, the mice were first adapted to the experimental environment for at least 1 hour. That is, the animals were transferred from the breeding room to the laboratory and moved freely in the cage.
Drug preparation: taking the compound to be tested, adding pure water and performing ultrasonication.
The animals were randomly divided into blank group, model group, and administration group according to body weight, 9 mice % group, and the detailed administration information is shown in the following table:
T-30 min oral administration of compound: compound to be tested or solvent (pure water) was administered orally by gavage, and put into test box (test box size length*width*height=27*27*40 cm) immediately after administration, recording the spontaneous activity of the mice within 30 minutes.
The blank control group was injected with normal saline.
3.2.4 Data Recording and Analysis.
(§2) The activities of these animals (movement distance in the test box) were automatically recorded by the camera, and analyzed with ANY MAZE software, and the ED50 values were calculated.

A further test addresses T1, TAAR1 receptor (Homo sapiens, UniProt Q96RJ0).
T1 construct: expressed in transfected cells
T1 sequence (Q96RJ0 1-339): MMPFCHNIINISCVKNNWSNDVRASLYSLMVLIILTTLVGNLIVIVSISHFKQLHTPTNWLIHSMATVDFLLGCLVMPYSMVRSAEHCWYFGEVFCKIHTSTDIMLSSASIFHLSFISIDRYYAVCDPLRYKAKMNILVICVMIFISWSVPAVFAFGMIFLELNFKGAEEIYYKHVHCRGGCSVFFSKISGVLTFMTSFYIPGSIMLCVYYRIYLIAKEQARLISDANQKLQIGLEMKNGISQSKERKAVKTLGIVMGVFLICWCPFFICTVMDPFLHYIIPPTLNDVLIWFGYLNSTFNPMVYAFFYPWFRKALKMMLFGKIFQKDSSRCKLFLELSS
In words: TAAR1 receptor cAMP agonist test (HEK293 cell line stably expressing TAAR1 receptor). As to conditions: for EC50: cAMP agonist assay, HEK293 cells stably expressing TAAR1; for TAAR1 Max Act %: maximal activation rate relative to PEA positive control. In kind it is cell-based. The protocol:
1.1 Experimental Materials:
The cAMP detection lit was purchased from Cisbio; the […] cell line stably expressing TAAR1 receptor was constructed by Shanghai Singing Biotechnology Co., Ltd.; IBMX was purchased from Sigma; Phenethylamine (PEA); ProxiPlate-384 well plate was purchased from PerkinElmer. HBSS was purchased from Thermo Fisher Scientific Company.
(§3) (1) Preparation of experimental buffer: 5×stimulation buffer was diluted to 1× with ddH2O, adding IBMX with a final concentration of 0.5 mM, mixing well for later use.
(2) The frozen cells were thawed quickly in a 37° C. water bath, the cell suspension was washed with HBSS buffer, centrifuging at 200×g to remove the frozen storage solution, the pellet was resuspended with an appropriate amount of experimental buffer, taking 20 μL for counting with a cell counter, and diluting to 1.5×10^6 cells/mL.
(3) 5 μL of cell suspension (1.5×10^4 cells per well) was added to the ProxiPlate-384 well plate.
(4) The compound to be tested was diluted in the experimental buffer by gradient, and 5 μL was transferred to the reaction plate using Bravo, 5 μL experimental buffer was put in each negative control well, and 5 μL PEA (final concentration 10^−2M) was put in each positive control well.
(5) Incubating at 37° C. for 1 hour.
(6) 10 ELL of detection reagent was added to the reaction plate, incubating at room temperature for 1 hour in dark.
(§4) Activation rate (activity %)=(negative control ratio-compound ratio)/(negative control ratio-positive control ratio)×100%
The EC50 values of the compounds were calculated using the four-parameter fitting model log(agonist)vs.response—Variable slope (four parameters) in GraphPad Prism.

In another test the target is T2, 5-HT1A receptor (Homo sapiens, UniProt P08908).
T2 construct: expressed in transfected cells
T2 sequence (P08908 1-422): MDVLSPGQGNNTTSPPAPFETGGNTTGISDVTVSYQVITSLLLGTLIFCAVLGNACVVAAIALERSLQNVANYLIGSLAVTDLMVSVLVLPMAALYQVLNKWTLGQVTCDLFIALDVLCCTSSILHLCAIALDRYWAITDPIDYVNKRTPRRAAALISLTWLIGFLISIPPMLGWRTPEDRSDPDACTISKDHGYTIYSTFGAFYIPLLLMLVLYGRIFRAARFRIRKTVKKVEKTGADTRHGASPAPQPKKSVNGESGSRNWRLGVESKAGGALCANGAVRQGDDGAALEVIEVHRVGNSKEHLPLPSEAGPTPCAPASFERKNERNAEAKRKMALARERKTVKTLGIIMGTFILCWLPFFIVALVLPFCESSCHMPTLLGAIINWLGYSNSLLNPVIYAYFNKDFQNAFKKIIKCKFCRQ
In words: 5-HT1A receptor cAMP agonist test (HEK293 cell line stably expressing 5-HT1A receptor). In kind it is cell-based. Conditions: for EC50: cAMP agonist assay with forskolin, HEK293 cells stably expressing 5-HT1A; for 5-HT1A Max Act %: maximal activation rate relative to Serotonin positive control. The method, then:
2.1 Experimental Materials:
The cAMP detection kit was purchased from Cisbio; the HEK293 cell line stably expressing 5-HT1A receptor was constructed by Shanghai Shujing Biotechnology Co., Ltd.; Serotonin, Forskolin and IBMX were purchased from Sigma; ProxiPlate-384-well plates was purchased from PerkinElmer; HBSS was purchased from Thermo Fisher Scientific.
as §3
(2) The cultured cells were digested with trypsin, and the cell suspension was washed with HBSS buffer after the digestion was terminated, centrifuging to remove the culture medium at 200×g; the precipitate was resuspended with an appropriate amount of experimental buffer, taking 20 μL for counting with a cell counter, and diluting to 0.4×10^6 cells/mL.
(3) 5 μL cell suspension (2×10^3 cells per well) was added to ProxiPlate-384 well plate.
(4) The compound to be tested was diluted in the experimental buffer by gradient, and 5 μL was transferred to the reaction plate using Bravo, 5 μL experimental buffer was put in each negative control well, and 5 μL Serotonin (final concentration 10^−6 M) was put in each positive control well.
(5) Incubating at room temperature for 15 minutes.
(6) Forskolin (final concentration 1.5×10^−7M) was added to the reaction plate using TecanD300e picoliter micro-dosing system.
(7) Incubating at room temperature for 45 minutes.
(8) 10 μL detection reagent was added to the reaction plate, incubating at room temperature for 1 hour in dark.
as §4
The EC50 values of the compounds were calculated using the four-parameter fitting model log(agouist)vs. response—Variable slope (four parameters) in Graph Pad Prism.

For test [2], the system named is high spontaneous activity induced by PCP. In words: Inhibition of high spontaneous activity induced by PCP in mice. In kind it is in vivo. As to conditions: male C57Bl/6J mice, compound p.o. 30 min before PCP 5 mg/kg i.p.
Excerpt: Compounds to be tested: compounds of the examples of the present application, self-made.
Phencyclidine hydrochloride (PCP): purchased from Shanghai Yuansi Standard Science Technology Co., Ltd., specification: 5 g.
as §1
That is, animals were transferred from the feeding room to the laboratory, and moved freely in the cage.
The animals were randomly divided into blank group, model group, and administration group according to body weight, 9 mice/group, and the detailed administration information is shown in the following table:
T0 min intraperitoneal injection of modeling drug: 30 minutes after compound administration, the mice were taken out, and administered with PCP (5 mg/kg) by intraperitoneal injection. The blank control group was injected with pure water.
as §2

`CNC[C@@H]1OCC2(CC2)c2ccsc21` (single isomer, unassigned) [Example 8-S]: the median effective dose (ED50) in test [1] (Mus musculus, movement distance over 150 min, read-out: ED50 (half effective dose)) worked out at 0.36 mg/kg. The “MED (minimum effective dose)” value in test [1] came to 0.3 mg/kg. Besides, at TAAR1 receptor, the EC50 worked out at 704 nM and the “TAAR1 Max Act %” value worked out at 96.1%. Besides, on 5-HT1A receptor, the EC50 was found to be 903 nM and the “5-HT1A Max Act %” value is given as 90.7%. In addition, the “MED (minimum effective dose)” value in test [2] is listed as 0.3 mg/kg.

Take `CNC[C@@H]1OCC2(CC2)c2sccc21` (single isomer, unassigned) [Example 9-R]: the “MED (minimum effective dose)” value was determined as 10 mg/kg in test [1] and 0.1 mg/kg in test [2].

For `CNC[C@H]1OCC2(CC2)c2sccc21` (single isomer, unassigned) [Example 9-S], on TAAR1 receptor, a half-maximal response (EC50) required 795 nM and the “TAAR1 Max Act %” value is reported as 95.8%.

For `CNCC1OCC2(CCC2)c2ccsc21` (stereo not drawn) [Example 2, 1-(5′H,7′H-spiro[cyclobutane-1,4′-thieno[2,3c]pyran]-7′-yl)-N-methylmethylamine], on 5-HT1A receptor, the EC50 was 257 nM and the “5-HT1A Max Act %” value is 108.9%.

For the compound `CNCC1OCC2(CC2)c2c(C)csc21` (stereo not drawn) [Example 7, 1-(3′-methyl-5′H,7′H-Spiro[cyclopropane-1,4′-thieno[2,3-c]pyran]-7′-yl)-N-methylmethylamine], at 5-HT1A receptor, the concentration giving a half-maximal response (EC50) was found to be 394 nM and the “5-HT1A Max Act %” value amounted to 93.4%.

On to `CNCC1OCC2(CC2)c2ccsc21` (stereo not drawn) [Example 8, 1-(5′H,7′H-Spiro[cyclopropane-1,4-thieno[2,3-c]pyran]-7′-yl)-N-methylmethylamine], for which, on TAAR1 receptor, the midpoint of the response, the EC50, lay at 1630 nM and the “TAAR1 Max Act %” value was 96.6%. At 5-HT1A receptor, a half-maximal effect (EC50) was put at 1540 nM and the “5-HT1A Max Act %” value is 91.6%.

For the compound `CNCC1OCC2(CC2)c2sccc21` (stereo not drawn) [Example 9, 1-(4′H,6′H-spiro[cyclopropane-1,7′-thieno[3,2-c]pyran]-4′-yl)-N-methylmethylamine], at TAAR1 receptor, the concentration for a half-maximal effect (EC50) came to 1670 nM and the “TAAR1 Max Act %” value came out at 95.5%. Further, on 5-HT1A receptor, the concentration giving a half-maximal response (EC50) came out at 2440 nM and the “5-HT1A Max Act %” value came to 92.7%.

Turning to `[2H]C([2H])([2H])NCC1OCC2(CC2)c2ccsc21` (stereo not drawn) [Example 15, N-((5′H,7′H-Spiro[cyclopropane-1,4′-thieno[2,3-c]pyran]-7′-yl)methyl)methane-d3-amine], on TAAR1 receptor, the EC50 was found to be 1730 nM and the “TAAR1 Max Act %” value came out at 93.3%. Also, at 5-HT1A receptor, the EC50 came out at 2680 nM and the “5-HT1A Max Act %” value is on record as 93.7%.

On to `CCNCC1OCC2(CC2)c2ccsc21` (stereo not drawn) [Example 16, N-((5′H,7′H-spiro[cyclopropane-1,4′-thieno[2,3-c]pyran]-7′-yl)methyl)ethylamine], for which, on 5-HT1A receptor, the EC50 amounted to 1380 nM and the “5-HT1A Max Act %” value was found to be 115.6%.

As to `c1cc2c(s1)C(CN1CCC1)OCC21CC1` (stereo not drawn) [Example 23, 1-((5′H,7′H-Spiro[cyclopropane-1,4′-thieno[2,3-c]pyran]-7′-yl)methyl)azetidine], on 5-HT1A receptor, the response was half-maximal at 5510 nM (EC50) and the “5-HT1A Max Act %” value amounted to 75.5%.

In the case of `[2H]C([2H])([2H])NCC1OCC2(CC2)c2sccc21` (stereo not drawn) [Example 32, N-((4′,6′-dihydrospiro[cyclopropane-1,7′-thieno[3,2-c]pyran]-4′-yl)methyl)methyl-D3-amine], on TAAR1 receptor, the EC50 amounted to 1320 nM and the “TAAR1 Max Act %” value is 97.7%. Moreover, at 5-HT1A receptor, a half-maximal effect (EC50) was put at 1880 nM and the “5-HT1A Max Act %” value is given as 80.5%.

On to `[2H]C([2H])([2H])NC[C@@H]1OCC2(CC2)c2sccc21` [Example 32-R, (R)—N-((4′,6′-dihydrospiro[cyclopropane-1,7′-thieno[3,2-c]pyran]-4′-yl)methyl)methyl-D3-amine], for which, at 5-HT1A receptor, the EC50 turned out to be 1670 nM and the “5-HT1A Max Act %” value came to 86.3%.

For the compound `[2H]C([2H])([2H])NC[C@H]1OCC2(CC2)c2sccc21` [Example 32-S, (S)—N-((4′,6′-dihydrospiro[cyclopropane-1,7′-thieno[3,2-c]pyran]-4′-yl)methyl)methyl-D3-amine], on TAAR1 receptor, it took 806 nM to reach a half-maximal effect (EC50) and the “TAAR1 Max Act %” value was 97.1%.

For orientation: ED50 means the dose that gives a 50% effect, or the effect in half of the subjects. By EC50 is commonly meant the midpoint of the concentration-response curve. Higher therefore signals weaker potency.

The values above are taken from patent US20240190888A1, “SPIRO-CONTAINING DERIVATIVE, AND PREPARATION METHOD THEREFOR AND USE THEREOF” (priority 2021, published 2024).
